Measured values reported in patent US20230406849A1, “KRAS INHIBITORS FOR TREATMENT OF CANCERS” (TYLIGAND BIOSCIENCE (SHANGHAI) LIMITED, priority 2020, published 2023).

Test: Pharmacokinetics in rats, IV and oral
Type: in vivo, SD rats
Details: rat
Experimental: 2.2 Pharmacokinetic Properties of Representative Examples of the Present Disclosure
[Test materials] Same as above 2.1.
[Experimental procedure]: IV injection administration was performed on rats according to the similar procedure described in 2.1 above, with a drug concentration of 3 mg/mL, and the drug preparation, administration and sample collection were performed by reference to 2.1 above. For the oral administration group, the drug was formulated to a 3 mg/mL suspension in 0.5% methylcellulose MC-400cp (Aladdin, M112866), and gavage administered in 10 mL/kg. Blood samples were collected at the time points of 0.25, 0.5, 1, 2, 4, 6, 8 and 24 hours after administration via external jugular vein puncture, centrifuged at low temperature for 20 minutes, and the plasma samples were collected and stored at −80° C. until analysis.
The subsequent sample analysis and data processing are similar to those described in 2.1.

AUC(0-inf) (male, SD, plasma, IV, 3 mg/kg): 3.31 µg·h/mL | AUC(0-t) (male, SD, plasma, IV, 3 mg/kg): 3.31 µg·h/mL | Vd (male, SD, plasma, IV, 3 mg/kg): 0.63 L/kg | clearance (male, SD, plasma, IV, 3 mg/kg): 0.936 L/h/kg | half-life (male, SD, plasma, IV, 3 mg/kg): 0.67 h | AUC(0-inf) (male, SD, plasma, PO, 30 mg/kg): 7.87 µg·h/mL | AUC(0-t) (male, SD, plasma, PO, 30 mg/kg): 7.78 µg·h/mL | Cmax (male, SD, plasma, PO, 30 mg/kg): 2.39 µg/mL | Tmax (male, SD, plasma, PO, 30 mg/kg): 1.33 h | F (PO 30 mg/kg vs IV 3 mg/kg): 23.8%
SMILES: C=CC(=O)N1CCN(c2c(C#N)cnc3c(F)c(-c4ccc(F)c5sc(N)nc45)c(Cl)cc23)CC1 [Example 9, 4-(4-Acryloylpiperazin-1-yl)-7-(2-amino-7-fluorobenzo[d]thiazol-4-yl)-6-chloro-8-fluoroquinoline-3-carbonitrile]
